Assay results from patent US9763938B2, “Substituted quinoxalines as positive allosteric modulators of mGluR4” (MERCK PATENT GMBH, priority 2013, dated 2017).

target: T1, hmGluR4 (Homo sapiens, UniProt Q14833); test: HEK-293 mGluR4 cells cAMP assay with EC20 L-glutamate (HTRF); format: cell-based; details: positive allosteric activity at EC20 L-glutamate, 10 μM forskolin, HEK293T mGluR4 cells, read-out: hrmGluR4/HEK293T-hmGluR4 (EC50)
T1 construct: host or cells: HEK293T
Method: HEK-293 mGluR4 Cells cAMP Assay with EC20 L-Glutamate
Using mGluR4 suspension cell format, 10 μM Forskolin (final conc.) used to induce the production of cAMP.
Test the positive allosteric activity of the compounds of the invention at EC20 (2.3 μM for mGluR4 and 4.3 μM for mGluR6) L-Glutamate,
cAMP dymanic2 kit is intended for the direct quantitative determination of cAMP and its principle is based on HTRF technology.
Cell Preparation: split cells at 80%-90% confluence. The following day, rinse the cells with DMEM without GlutaMax and change to Glutamine Starvation Media. Incubate overnight.
Prepare compound plate: Perform compound serial dilution (uses Matrix 4341 plate), using the Bravo liquid handling platform protocol (compound serial dilution) which adds DMSO to columns 1-24 (except cols. 3 and 13). Serial dilute compounds located in columns 3 and 13 at a 1:3 ratio; 10 points (10 ul of 3 mM compound into 20 ul DMSO). Use the Bravo liquid handling platform to transfer 1 ul from the serial dilution plate into Matrix 4314 plate to create stamp plates.
Dilute 20 mM Forskolin (in DMSO) stock solution in HBSS buffer to make a 20 uM solution (forskolin buffer; 2× solution). To the forskolin buffer, add glutamate to a concentration of 8 uM (compound dilution buffer; 2×EC20 glutamate and forskolin).
Using a multidrop, add 50 ul/well of compound dilution buffer to columns 1-22 of the 2 ul compound stamp plate. Columns 23 and 24 receive forskolin buffer containing 400 uM glutamate (EC100 glutamate; 2× solution). Columns 1 and 2 receive compound dilution buffer containing EC20 glutamate, which is the basal control. Add a glutamate dose response to row P of compound plate. Prepare the dose response by serial diluting glutamate at a 1:3 ratio in forskolin buffer starting at 2 mM glutamate (2×). Dilute the glutamate 9 times and transfer to compound plate.
Harvest cells: Rinse cells with pre-warmed HBSS-10 mM HEPES (without Ca Mg) and dissociate the cells from the flask with versene. Centrifuge the cells, remove the supernatant and suspend in pre-warmed HBSS+10 mM Hepes. Count the cells and centrifuge. Remove the supernatant and suspend the cells in HBSS+Hepes (with Ca Mg) at a density of 400,000 cells/ml.
Dispense 5 ul from the diluted compound plate into Greiner low volume cell plate using the Bravo liquid handling platform. Using a Multidrop with the small tubing cassette, dispense 5 ul of cells (2000 cells/well) onto the compounds contained in the low volume plates. Incubate the cells at 37° C., 5% CO2 for 30 minutes in the incubator.
Prepare cAMP-d2 and anti-cAMP-Crytate according to the instructions for the two step assay (see Cisbio manual) and add 10 ul of the mixed reagent to each well of the assay plate using the Multidrop. Incubate at room temperature for 60 minutes and read on the Envision plate reader using the mGluR low volume cAMP HTRF 384 well protocol. The readout is the calculated fluorescence ratio ([…]*10000).

T1 sequence (Q14833 33-912): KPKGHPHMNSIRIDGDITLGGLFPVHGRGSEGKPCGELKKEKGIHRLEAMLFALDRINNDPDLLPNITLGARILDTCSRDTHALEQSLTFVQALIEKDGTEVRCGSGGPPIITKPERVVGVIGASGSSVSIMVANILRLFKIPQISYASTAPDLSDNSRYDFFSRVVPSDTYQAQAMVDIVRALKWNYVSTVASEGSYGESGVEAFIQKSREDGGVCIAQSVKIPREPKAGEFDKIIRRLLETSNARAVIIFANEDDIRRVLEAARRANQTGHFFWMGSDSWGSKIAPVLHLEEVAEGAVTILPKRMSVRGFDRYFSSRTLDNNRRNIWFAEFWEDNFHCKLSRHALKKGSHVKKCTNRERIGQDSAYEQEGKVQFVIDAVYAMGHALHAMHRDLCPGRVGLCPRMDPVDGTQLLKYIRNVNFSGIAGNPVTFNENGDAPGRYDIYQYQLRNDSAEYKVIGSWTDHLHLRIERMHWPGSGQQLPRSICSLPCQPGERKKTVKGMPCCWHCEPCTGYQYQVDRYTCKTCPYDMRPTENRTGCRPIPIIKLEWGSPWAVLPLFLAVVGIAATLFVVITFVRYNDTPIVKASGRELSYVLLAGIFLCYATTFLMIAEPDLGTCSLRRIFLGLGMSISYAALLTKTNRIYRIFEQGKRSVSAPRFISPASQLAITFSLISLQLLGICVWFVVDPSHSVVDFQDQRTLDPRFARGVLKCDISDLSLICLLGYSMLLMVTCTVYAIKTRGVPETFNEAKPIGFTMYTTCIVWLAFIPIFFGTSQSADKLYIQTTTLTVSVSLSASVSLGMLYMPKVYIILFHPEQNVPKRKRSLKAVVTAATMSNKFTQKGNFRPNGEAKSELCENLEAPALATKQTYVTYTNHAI

SMILES	EC50 [µM]
c1ccc(-c2nc3c(nc2-c2ccccc2)CCCC3)cc1 [Compound 8, 2,3-Diphenyl-5,6,7,8-tetrahydro-quinoxaline]	1 to 10
Fc1ccc(-c2nc3ccccc3nc2-c2cccc3[nH]ccc23)cc1F [Compound 4, 2-(3,4-Difluoro-phenyl)-3-(1H-indol-4-yl)-quinoxaline]	1 to 10
Fc1ccccc1-c1nc2ccccc2nc1-c1ccccc1F [Compound 9, 2,3-Bis-(2-fluoro-phenyl)-quinoxaline]	1 to 10
Cc1cccc2nc(-c3ccccc3)c(-c3ccccc3)nc12 [Compound 5, 5-Methyl-2,3-diphenyl-quinoxaline]	1 to 10
Fc1ccc(-c2nc3ccccc3nc2-c2ccccc2)cc1F [Compound 10, 2-(3,4-Difluoro-phenyl)-3-phenyl-quinoxaline]	1 to 10
c1ccc(-c2nc3ccccc3nc2-c2cccc3cccnc23)cc1 [Compound 6, 2-Phenyl-3-quinolin-8-yl-quinoxaline]	1 to 10
CC(=O)c1cccc2nc(-c3ccccc3)c(-c3ccccc3)nc12 [Compound 7, 1-(2,3-Diphenyl-quinoxalin-5-yl)-ethanone]	1 to 10

More lines, now with the values ahead:

EC50 [µM]	SMILES
< 1	Oc1ccc(-c2nc3ccccc3nc2-c2ccccc2)cc1 [Compound 2, 4-(3-Phenyl-quinoxalin-2-yl)-phenol]
< 1	OC1CCN(c2nc3ccccc3nc2-c2ccccc2)CC1 [Compound 3, 1-(3-Phenyl-quinoxalin-2-yl)-piperidin-4-ol]
< 1	c1ccc(-c2nc3ccccc3nc2-c2ccnc3ccccc23)cc1 [Compound 1, 2-Phenyl-3-quinolin-4-yl-quinoxaline]
